These results are taken from EP1383793B1 (priority 2000, dated 2001).

Data set [1] addresses T1, human insulin receptor (HIR) (Homo sapiens, UniProt P06213).
T1 construct: made in house
In words: 125I-insulin competition binding assay on solubilised purified receptor.

In a further data set the target is T2, IGF-1R (Homo sapiens, UniProt P08069).
T2 construct: Soluble IGF-1R was obtained from R&D Systems; purchased R&D Systems 391-GR/CF
The data set can be described thus: IGF-1R peptide assay, time-resolved FRET, competition with biotinylated 20E2 (IC50). The data set is classed as binding.

A further data set concerns adipocytes. The data set can be described thus: 3H-glucose uptake into adipocytes (fat cell assay, FFC). The class given is cell-based, Mouse. The settings on record: Subjective ranking; basal and sub maximal insulin; includes series A.
The nature of data set [2]: Precipitate in diluted peptide stock prior to adding to the fat cell assay; solubility under assay conditions. The class given is physicochemical. Particulars: diluted stock prior to adding to assay.
Data set [3] addresses human IGF-1 receptor (HIGF-1R) (Homo sapiens, UniProt P08069). The data set can be described thus: 125I-IGF-1 competition binding assay on solubilised purified receptor.

Where two headings read alike, the source gives them in different places. Residues, ends and D or L forms follow the SMILES beside them. No end group written: not given here. *: point of attachment. Biotin = O=C1N[C@H]2[C@H](CS[C@H]2CCCCC(=O)*)N1 Some results are limits rather than exact numbers.

T1 sequence (P06213 28-758 limits assumed): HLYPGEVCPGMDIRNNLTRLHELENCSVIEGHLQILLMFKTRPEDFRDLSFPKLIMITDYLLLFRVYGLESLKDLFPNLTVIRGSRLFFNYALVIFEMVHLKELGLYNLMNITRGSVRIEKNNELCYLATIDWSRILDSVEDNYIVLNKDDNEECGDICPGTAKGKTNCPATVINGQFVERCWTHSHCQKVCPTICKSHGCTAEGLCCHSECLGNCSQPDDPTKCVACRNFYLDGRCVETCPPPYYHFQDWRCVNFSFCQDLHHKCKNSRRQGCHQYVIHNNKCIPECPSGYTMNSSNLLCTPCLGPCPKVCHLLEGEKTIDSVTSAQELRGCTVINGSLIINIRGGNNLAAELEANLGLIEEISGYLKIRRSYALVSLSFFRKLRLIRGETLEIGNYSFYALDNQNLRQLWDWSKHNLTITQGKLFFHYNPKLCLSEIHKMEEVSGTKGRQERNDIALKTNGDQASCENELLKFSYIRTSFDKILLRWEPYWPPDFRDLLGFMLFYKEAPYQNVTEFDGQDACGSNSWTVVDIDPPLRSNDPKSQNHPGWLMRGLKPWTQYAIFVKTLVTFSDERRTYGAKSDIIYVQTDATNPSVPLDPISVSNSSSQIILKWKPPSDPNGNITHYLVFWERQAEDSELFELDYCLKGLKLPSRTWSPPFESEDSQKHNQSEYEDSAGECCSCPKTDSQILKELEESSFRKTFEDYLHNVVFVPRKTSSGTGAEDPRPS
T1 sequence (P06213 763-1382 limits assumed): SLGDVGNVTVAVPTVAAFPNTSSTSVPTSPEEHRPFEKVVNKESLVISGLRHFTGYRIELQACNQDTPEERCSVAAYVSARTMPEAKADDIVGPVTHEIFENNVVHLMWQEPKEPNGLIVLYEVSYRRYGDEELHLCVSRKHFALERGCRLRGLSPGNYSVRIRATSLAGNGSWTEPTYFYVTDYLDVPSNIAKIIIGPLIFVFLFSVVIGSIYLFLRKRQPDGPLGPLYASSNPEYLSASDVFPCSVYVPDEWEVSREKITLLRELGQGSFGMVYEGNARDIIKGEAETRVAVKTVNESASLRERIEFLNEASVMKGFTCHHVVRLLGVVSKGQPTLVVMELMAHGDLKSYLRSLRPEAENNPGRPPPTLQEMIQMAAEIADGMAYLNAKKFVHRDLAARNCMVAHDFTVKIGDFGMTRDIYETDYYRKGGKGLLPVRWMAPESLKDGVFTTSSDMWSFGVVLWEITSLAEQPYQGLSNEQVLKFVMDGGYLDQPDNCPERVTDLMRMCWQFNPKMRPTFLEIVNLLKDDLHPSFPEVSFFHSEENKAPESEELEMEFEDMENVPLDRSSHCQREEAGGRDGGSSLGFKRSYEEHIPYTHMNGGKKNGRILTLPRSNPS

In the case of NGVERAGTGDNFYDWFVAQLH-NH2 [Clone S176], the Kd in data set [1] (read-out: HIR affinity) turned out to be 0.47 µM. Also, the IC50 at IGF-1R was 0.418 µM.

As for QSDSGTVHDRFYGWFRDTWAS-NH2 [Clone S179], the Kd in data set [1] (read-out: HIR affinity) turned out to be 0.54 µM. At IGF-1R, this compound gave an IC50 of 5.35 µM.

`CC(C)C[C@H](NC(=O)[C@@H](NC(=O)[C@@H](N)CCCCN)C(C)C)C(=O)N[C@@H](CCC(N)=O)C(=O)N[C@@H](C)C(=O)N[C@@H](CCCNC(=N)N)C(=O)N[C@@H](Cc1c[nH]cn1)C(=O)NCC(=O)N[C@@H](CS)C(=O)N[C@@H](CC(=O)O)C(=O)N[C@@H](CO)C(=O)N[C@H](C(=O)N[C@@H](CO)C(=O)N[C@@H](CC(=O)O)C(=O)N[C@@H](CS)C(=O)N[C@@H](Cc1ccccc1)C(=O)N[C@@H](Cc1ccc(O)cc1)C(=O)N[C@@H](CCC(=O)O)C(=O)N[C@@H](Cc1c[nH]c2ccccc12)C(=O)N[C@@H](Cc1ccccc1)C(=O)N[C@@H](C)C(=O)N[C@@H](CCCCN)C(=O)N[C@@H](CCCCNC(=O)CCCC[C@@H]1SC[C@@H]2NC(=O)N[C@@H]21)C(N)=O)C(C)C` [Clone D102] (H-KVLQARHGCDSVSDCFYEWFAKK(Biotin)-NH2; N-terminus assumed): the Resp. with adipocytes is 0. Besides, the “Comments (precipitation)” value in data set [2] is given as “Precipitates”.

For `CC(C)C[C@H](NC(=O)CNC(=O)[C@H](CC(=O)O)NC(=O)[C@H](CCC(N)=O)NC(=O)[C@H](CCCCN)NC(=O)[C@H](CC(N)=O)NC(=O)[C@H](CO)NC(=O)[C@@H](NC(=O)[C@H](CC(C)C)NC(=O)CNC(=O)[C@@H]1CCCN1C(=O)[C@H](C)NC(=O)[C@H](CO)NC(=O)[C@@H](N)CCCCN)C(C)C)C(=O)N[C@@H](Cc1ccccc1)C(=O)N[C@@H](Cc1ccc(O)cc1)C(=O)N[C@@H](CO)C(=O)N[C@@H](Cc1c[nH]c2ccccc12)C(=O)N[C@@H](Cc1ccccc1)C(=O)N[C@@H](CCCNC(=N)N)C(=O)N[C@@H](CCC(=O)O)C(=O)N[C@@H](CCCCN)C(=O)N[C@@H](CCCCNC(=O)CCCC[C@@H]1SC[C@@H]2NC(=O)N[C@@H]21)C(N)=O` [Clone D109] (H-KSAPGLVSNKQDGLFYSWFREKK(Biotin)-NH2), the Kd was 12 µM in data set [3] and 3.6 µM in data set [1] (read-out: Kd (µM) HIR).

Regarding `CC(C)C[C@H](NC(=O)[C@@H]1CCCN1)C(=O)N[C@@H](C)C(=O)N[C@@H](CCC(=O)O)C(=O)N[C@@H](CC(C)C)C(=O)N[C@@H](Cc1c[nH]c2ccccc12)C(=O)N[C@@H](C)C(=O)N[C@@H](Cc1ccc(O)cc1)C(=O)N[C@@H](Cc1ccccc1)C(=O)N[C@@H](CCC(=O)O)C(=O)N[C@@H](Cc1c[nH]cn1)C(=O)N[C@@H](CO)C(=O)N[C@@H](CCC(=O)O)C(=O)N[C@@H](CCC(N)=O)C(=O)NCC(=O)N[C@@H](CCCNC(=N)N)C(=O)N[C@@H](CO)C(=O)N[C@@H](CO)C(=O)N[C@@H](C)C(=O)N[C@@H](Cc1c[nH]cn1)C(N)=O` [Clone S174], in data set [1] (read-out: HIR affinity), the Kd was determined as 16 µM. The compound further returned a half-maximal inhibitory concentration (IC50) on IGF-1R of 1.46 µM.

In the case of `CSCC[C@H](NC(=O)[C@H](CC(C)C)NC(=O)[C@H](CCCNC(=N)N)NC(=O)[C@H](CC(=O)O)NC(=O)[C@H](CC(C)C)NC(=O)[C@H](C)NC(=O)[C@H](CC(=O)O)NC(=O)[C@@H](N)CC(C)C)C(=O)N[C@@H](CCCNC(=N)N)C(=O)N[C@@H](Cc1ccc(O)cc1)C(=O)N[C@@H](Cc1ccccc1)C(=O)N[C@@H](CCC(=O)O)C(=O)N[C@@H](CCC(=O)O)C(=O)N[C@@H](CCCNC(=N)N)C(=O)N1CCC[C@H]1C(=O)N[C@@H](CO)C(=O)N[C@@H](CC(C)C)C(N)=O` [Clone S173], the half-maximal inhibitory concentration (IC50) at IGF-1R stood at 5.62 µM.

As for “TFYSCLASLLTGTPQPNRGPWERCR [20C-3-G3-IGFR]”, the IC50 in the data set with IGF-1R worked out at 0.184 µM.

Turning to `C[C@@H](O)[C@H](NC(=O)[C@@H]1CCCN1C(=O)[C@H](CCCCN)NC(=O)[C@H](CC(=O)O)NC(=O)[C@H](CCCNC(=N)N)NC(=O)[C@@H](N)CCCCN)C(=O)N[C@@H](CC(=O)O)C(=O)N[C@@H](CCC(N)=O)C(=O)N[C@@H](CCC(=O)O)C(=O)N[C@@H](CCC(=O)O)C(=O)N[C@@H](CCC(N)=O)C(=O)N[C@@H](CC(N)=O)C(=O)N[C@@H](Cc1c[nH]c2ccccc12)C(=O)N[C@@H](CO)C(=O)N[C@@H](Cc1ccccc1)C(=O)N[C@@H](Cc1ccc(O)cc1)C(=O)N[C@@H](CCC(=O)O)C(=O)N[C@@H](Cc1c[nH]c2ccccc12)C(=O)N[C@@H](Cc1ccccc1)C(=O)N[C@@H](CCCNC(=N)N)C(=O)N[C@@H](Cc1c[nH]cn1)C(=O)N[C@@H](CCCCN)C(=O)N[C@@H](CCCCNC(=O)CCCC[C@@H]1SC[C@@H]2NC(=O)N[C@@H]21)C(N)=O` [Clone D105] (H-KRDKPTDQEEQNWSFYEWFRHKK(Biotin)-NH2), the Kd was found to be 12 µM in data set [3] and 2.8 µM in data set [1] (read-out: Kd (µM) HIR).

For EHWNTVDPFYQYFSELLRESG-NH2 [Clone S178], the Kd in data set [1] (read-out: HIR affinity) was 0.13 µM. Besides, the IC50 on IGF-1R was 0.24 µM.

In the case of AFYDWFAKK-NH2 [Clone S167], the Kd in data set [1] (read-out: HIR affinity) was above 20 µM. In addition, at IGF-1R, the IC50 was around 100 µM.

As for `CSCC[C@H](NC(=O)[C@H](Cc1ccccc1)NC(=O)[C@H](Cc1c[nH]c2ccccc12)NC(=O)[C@H](CC(=O)O)NC(=O)[C@H](Cc1ccc(O)cc1)NC(=O)[C@H](Cc1ccccc1)NC(=O)[C@H](CC(N)=O)NC(=O)[C@H](CCCCN)NC(=O)[C@H](CC(=O)O)NC(=O)[C@H](C)N)C(=O)N[C@@H](C)C(=O)N[C@@H](C)C(=O)N[C@@H](CCCCN)C(=O)N[C@@H](CCCCNC(=O)CCCC[C@@H]1SC[C@@H]2NC(=O)N[C@@H]21)C(N)=O` [Clone D115] (H-ADKNFYDWFMAAKK(Biotin)-NH2), the figures for the Kd in data set [3] and in data set [1] (read-out: Kd (µM) HIR) were above 20 µM and 8.1 µM, respectively.

In the case of `CC(C)C[C@H](NC(=O)[C@H](C)NC(=O)[C@H](Cc1c[nH]c2ccccc12)NC(=O)[C@H](CO)NC(=O)[C@H](Cc1c[nH]cn1)NC(=O)CNC(=O)[C@@H](N)CCCCN)C(=O)N[C@H](C(=O)N[C@@H](CCCNC(=N)N)C(=O)N[C@@H](Cc1c[nH]cn1)C(=O)N[C@H](C(=O)N[C@@H](CC(=O)O)C(=O)N[C@@H](CCCNC(=N)N)C(=O)N[C@@H](CC(C)C)C(=O)N[C@@H](Cc1ccccc1)C(=O)N[C@@H](Cc1ccc(O)cc1)C(=O)N[C@@H](CCC(=O)O)C(=O)N[C@@H](Cc1c[nH]c2ccccc12)C(=O)N[C@@H](Cc1ccccc1)C(=O)N[C@@H](CC(=O)O)C(=O)N[C@@H](CC(C)C)C(=O)N[C@@H](CCCCN)C(=O)N[C@@H](CCCCNC(=O)CCCC[C@@H]1SC[C@@H]2NC(=O)N[C@@H]21)C(N)=O)C(C)C)C(C)C` [Clone D104] (H-KGHSWALVRHVDRLFYEWFDLKK(Biotin)-NH2), the results for the Kd in data set [3] and in data set [1] (read-out: Kd (µM) HIR) were above 20 µM and 20 µM, respectively.

In the case of `CC(C)C[C@H](NC(=O)[C@H](CCC(N)=O)NC(=O)[C@H](CCCNC(=N)N)NC(=O)[C@H](CO)NC(=O)[C@H](Cc1ccccc1)NC(=O)[C@H](Cc1c[nH]c2ccccc12)NC(=O)CNC(=O)[C@H](Cc1ccc(O)cc1)NC(=O)[C@H](Cc1ccccc1)NC(=O)[C@@H](N)CCCCN)C(=O)N[C@@H](CO)C(=O)N[C@@H](CC(C)C)C(=O)N[C@H](C(=O)N1CCC[C@H]1C(=O)N[C@@H](CCCNC(=N)N)C(=O)N[C@@H](CC(=O)O)C(=O)N[C@@H](CC(=O)O)C(=O)N[C@@H](Cc1c[nH]c2ccccc12)C(=O)NCC(=O)N[C@@H](CC(C)C)C(=O)N1CCC[C@H]1C(=O)N[C@@H](CCCCN)C(=O)N[C@@H](CCCCNC(=O)CCCC[C@@H]1SC[C@@H]2NC(=O)N[C@@H]21)C(N)=O)[C@@H](C)O` [Clone D108] (H-KFYGWFSRQLSLTPRDDWGLPKK(Biotin)-NH2), the Kd in data set [3] came out at 19 µM; in data set [1] (read-out: Kd (µM) HIR), 2.3 µM.

`CC(C)C[C@H](NC(=O)[C@H](C)NC(=O)[C@H](C)NC(=O)[C@H](CCC(N)=O)NC(=O)[C@@H]1CCCN1C(=O)[C@@H](NC(=O)[C@@H](NC(=O)[C@H](Cc1ccc(O)cc1)NC(=O)[C@H](Cc1c[nH]cn1)NC(=O)[C@H](CO)NC(=O)[C@H](CCC(=O)O)NC(=O)[C@H](CC(C)C)NC(=O)[C@@H](N)CCCCN)C(C)C)C(C)C)C(=O)N[C@@H](CC(=O)O)C(=O)N[C@@H](CCCNC(=N)N)C(=O)N[C@@H](CC(C)C)C(=O)N[C@@H](Cc1ccccc1)C(=O)N[C@@H](Cc1ccc(O)cc1)C(=O)N[C@@H](CO)C(=O)N[C@@H](Cc1c[nH]c2ccccc12)C(=O)N[C@@H](Cc1ccccc1)C(=O)N[C@@H](CO)C(=O)N[C@@H](CCCCN)C(=O)N[C@@H](CCCCNC(=O)CCCC[C@@H]1SC[C@@H]2NC(=O)N[C@@H]21)C(N)=O` [Clone D107] (H-KLESHYVVPQAALDRLFYSWFSKK(Biotin)-NH2): the Kd in data set [3] came to 9.7 µM; in data set [1] (read-out: Kd (µM) HIR), 1.1 µM.

Turning to `CC(C)C[C@H](NC(=O)[C@H](CCC(N)=O)NC(=O)[C@H](CCC(N)=O)NC(=O)[C@H](CO)NC(=O)[C@H](CCCNC(=N)N)NC(=O)[C@H](CS)NC(=O)[C@H](CC(N)=O)NC(=O)[C@H](Cc1c[nH]c2ccccc12)NC(=O)[C@H](Cc1ccccc1)NC(=O)[C@@H](NC(=O)[C@@H](N)CCCCN)C(C)C)C(=O)N[C@@H](CC(=O)O)C(=O)N[C@@H](Cc1ccccc1)C(=O)N[C@@H](Cc1ccc(O)cc1)C(=O)N[C@@H](CCC(=O)O)C(=O)N[C@@H](Cc1c[nH]c2ccccc12)C(=O)N[C@@H](Cc1ccccc1)C(=O)N[C@@H](CCC(=O)O)C(=O)N[C@@H](CCC(N)=O)C(=O)N[C@@H](C)C(=O)N[C@@H](C)C(=O)N[C@@H](CCCCN)C(=O)N[C@@H](CCCCNC(=O)CCCC[C@@H]1SC[C@@H]2NC(=O)N[C@@H]21)C(N)=O` [Clone D106] (H-KVFWNCRSQQLDFYEWFEQAAKK(Biotin)-NH2), the Kd was 6.2 µM in data set [3] and 0.97 µM in data set [1] (read-out: Kd (µM) HIR).

As to `CC(C)[C@H](NC(=O)[C@H](Cc1ccccc1)NC(=O)[C@H](Cc1c[nH]c2ccccc12)NC(=O)[C@H](CC(=O)O)NC(=O)[C@H](Cc1ccc(O)cc1)NC(=O)[C@H](Cc1ccccc1)NC(=O)[C@H](CC(N)=O)NC(=O)[C@H](CCCCN)NC(=O)[C@H](C)NC(=O)[C@@H](N)CO)C(=O)N[C@@H](CCCCN)C(=O)N[C@@H](CCCCNC(=O)CCCC[C@@H]1SC[C@@H]2NC(=O)N[C@@H]21)C(N)=O` [Clone D114] (H-SAKNFYDWFVKK(Biotin)-NH2), the results for the Kd in data set [3] and in data set [1] (read-out: Kd (µM) HIR) were above 20 µM and 8.1 µM, respectively.

For the compound EHWNTVDPFYFTLFEWLRESG-NH2 [Clone S177], the Kd in data set [1] (read-out: HIR affinity) turned out to be 2.7 µM. On IGF-1R, this compound had an IC50 of 2.04 µM.

Broadly, the IC50 is the point on the concentration scale where inhibition reaches its midpoint.
